# Measured values from paper PMC9209526 (Nature Communications, 2022).
# Molecular target: T1, N4posG321V (Abl kinase domain hinge mutant) (Homo sapiens, UniProt P00519, G321V)
# T1 construct: His10-TEV (N, cleaved yes); made in house; host or cells: E. coli BL21(DE3)pLysS, co-expressed with YopH phosphatase
# T1 sequence (P00519 229-512 G321V): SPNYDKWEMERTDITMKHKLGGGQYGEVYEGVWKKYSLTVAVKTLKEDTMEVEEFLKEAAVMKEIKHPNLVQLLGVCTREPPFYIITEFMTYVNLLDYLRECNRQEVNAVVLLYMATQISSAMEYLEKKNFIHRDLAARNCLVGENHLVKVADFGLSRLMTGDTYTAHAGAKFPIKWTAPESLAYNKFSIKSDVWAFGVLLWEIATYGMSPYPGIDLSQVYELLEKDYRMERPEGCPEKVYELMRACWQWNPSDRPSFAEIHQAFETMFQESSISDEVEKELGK
# Test: ClyA-AS nanopore tweezers single-channel current recording: ligand binding to N4posG321V
# Conditions: 1 mM ATP or ATPγS with 10 mM MgCl2; -80 mV
smiles,measurement,value
Nc1ncnc2c1ncn2[C@@H]1O[C@H](CO[P@](=O)(O)O[P@](=O)(O)O[P@@](=O)(O)S)[C@@H](O)[C@H]1O [ATPγS],effect on N4posG321V current trace,did not trigger any change in the current trace
